Measurements: patent US20180271847A1, “TREATMENT OF ACUTE TRAUMATIC INJURY” (priority 2015, published 2018)

Key:
Format in all cases: in vivo
motor neurons = assay: Count of large NeuN+ putative motor neurons in spinal cord 28 days after injury; conditions: rats, 28 days after spinal cord injury; large NeuN+ cells, ventral side of the cord
Description: FIGS. 8A-8C show the rescue of motor neurons by administration of 4-AP in acute traumatic injury to the spinal cord of the central nervous system. Another example of an unanticipated ability of the administration of 4-AP to provide benefit in acute traumatic injury was obtained by examining the number of motor neurons present in spinal cords of rats analyzed 28 days after injury, as in Example 1. Tissue sections were labeled with antibodies to the NeuN antigen, which is a marker of all neuronal populations. Due to the size and location of these neurons, they can only be motor neurons. Large neurons on the ventral side of the cord were then counted, in regions similarly distal or proximal to the lesion site. […] FIGS. 8B and 8C are graphs showing quantification of large NeuN+ cells in 1 mm^3 region proximal (p=0.06) and distal (p=0.04) to the lesion edge in 4-AP and control sections. […]
Rescue of motor neurons by administration of 4-AP in acute traumatic injury to the spinal cord of the central nervous system. Another example of an unexpected ability of the administration of 4-AP to provide benefit in acute traumatic injury was obtained by examining the number of motor neurons present in spinal cords of rats analyzed 28 days after injury, as in Example 1. […] Large neurons on the ventral side of the cord were then counted, in regions similarly distal or proximal to the lesion site.

[1] = test system: traumatic damage to the peripheral nervous system; assay: Recovery of function after traumatic damage to the peripheral nervous system; conditions: following traumatic damage to the peripheral nervous system
lipofuscin = assay: Auto-fluorescence / lipofuscin accumulation after spinal cord contusion injury; conditions: rats with contusion injuries to the spinal cord
Description: 4-aminopyridine administration decreases auto-fluorescence following contusion injury to the spinal cord. One of the responses to tissue injury in a broad variety of tissues is the accumulation of substances that may be given the general name of lipofuscin, a name given to lipid-containing residues of lysosomal digestion. This pigment is thought to be the product of oxidation of unsaturated fatty acids and is considered indicative of membrane damage of a nature that occurs widely in tissue injury, a variety of diseases and in aging. Lipofuscin is most readily observed as an auto-fluorescent component of tissue that is seen when tissue is excited with a wide range of […] wavelengths normally used for studying fluorescently labeled proteins, such as antibodies, that are widely used in studying all of the tissues of the body. Lipofuscin accumulation has been reported for cell types of a wide range of tissues, particularly after injury, including liver, kidney, heart muscle, retina, adrenal gland, nerve cells, and red-blood cells, in post-traumatic arthritis and in other tissues.
This is another wholly unexpected ability of 4-AP to beneficially modulate an outcome of traumatic injury that is applicable to a wide range of different tissues.

skeletal muscle atrophy = assay: Skeletal muscle atrophy after complete denervation (nerve transection)
Description: Treatment with 4AP decreased muscle expression of MuRF-1 (FIG. 11A) and myogenin (FIG. 11B) (both normalized to GADPH) after complete denervation. […] Thus, the beneficial effects of 4AP on parameters of atrophy were not dependent on restoration of normal motor usage. *=p<0.05; ** p<0.01.
In this example, the nerve innovating the extensor digitorum longus muscle was completely transected 15-25 mm distant from the muscle. 4-AP was then administered during the acute and subacute post-injury periods.

[2] = test system: contusion injury to the spinal cord; assay: Lesion volume 3 days after spinal cord contusion injury; conditions: rats with spinal cord contusion, sacrificed 3 days after injury
Description: FIG. 7 is a graph showing the unexpected ability of 4-AP to modulate outcomes of traumatic injury that are of relevance to the injury in all tissues of the body is the ability to decrease lesion size. In these experiments, rats received identical injuries as discussed in Example 1, except that these rats were sacrificed 3 days after injury. Lesion size, in cubic millimeters (mm^3) was calculated by imaging collected tissue sections covering the full dimensions of the injury using Stereolnvestigator and contours were traced to cover the region of the tissue in which damage was apparent. All slides were measured by a blinded individual. Lesion volume was thus determined. […]
Still another example of the unexpected ability of 4-AP to modulate outcomes of traumatic injury that are of relevance to such injury in all tissues of the body is the ability to decrease lesion size. […] Lesion size, in cubic millimeters (mm^3) was calculated by imaging collected tissue sections covering the full dimensions of the injury using Stereolnvestigator and contours were traced to cover the region of the tissue in which damage was apparent. All slides were measured by a blinded individual. Lesion volume was thus determined.

Sox 9 = Sox 9 immunofluorescence in spinal cord sections after contusion injury; conditions: rats with contusion injuries to the spinal cord, versus control
Description: FIG. 5A and FIG. 5B are images illustrating a section of control (FIG. 5A) and 4-AP (FIG. 5B) treated animals labeled with anti-Sox 9 (bright spots) and DAPI (darker grey). Arrows highlight the cells that were used to define the baseline threshold for Sox 9 immunofluorescence. Size bar represents 20 μm. FIG. 5C is a graph showing quantification of FIG. 5A and FIG. 5B using the threshold shown in A as baseline. N=3, *p=0.045 t-test.
The ability of daily 4-AP administration to provide benefit at the tissue level was investigated, leading to the wholly unexpected discovery of effects of 4-AP that are relevant to traumatic injuries in a wide range of tissues. The first such observation came from examination of the expression of Sox 9, a transcription factor that is expressed in a wide range of tissues of the nervous system, other excitable tissues and tissues that are not considered to be excitable (including, for example, pancreas, lung, chondrocytes, cartilage, liver, breast, prostate, colorectal, intestine and testis). Among other roles, Sox 9 controls production and expression of chondroitin sulfate proteoglycan, a critical component of scar in many different tissues. […]

[3] = after complete denervation, daily 4-AP

For `Nc1ccncc1` [4-AP, 4-aminopyridine], the “number of motor neurons in regions distal to the injury” value (motor neurons) was “clearly significant increase in the number of motor neurons”, the “number of motor neurons in regions proximal to the injury” value (motor neurons) was “very similar degree of increase in motor neurons” and the “recovery of motor function and electrophysiological function” value [1] was “more rapid recovery of motor function and electrophysiological function”. The “lipofuscin accumulation (tissue auto-fluorescence)” value (lipofuscin) was “little evidence of lipofuscin accumulation”, the “muscle expression of MuRF-1 (normalized to GADPH)” value (skeletal muscle atrophy; [3]) was “decreased” and the “muscle expression of myogenin (normalized to GADPH)” value (skeletal muscle atrophy; [3]) was “decreased”. For the same compound, the “recovery of gait function” value (skeletal muscle atrophy; denervated animals) was “did not show any recovery of gait function”, the “lesion size (lesion volume)” value [2] was “greatly decreasing lesion size” and the “expression of Sox9” value (Sox 9) was “greatly decrease the expression of Sox9”.
